Experimental data published in publication PMC12505902, “Inhibitors of trehalose-6-phosphate synthase activity in fungal pathogens compromise thermal tolerance pathways” (mBio, 2025).
Like-named read-outs stand apart in the source and are kept apart here.

What was measured:
[1] = test system: C. albicans (SC5314); experiment: MIC dose-response assay in YPD; format: cell-based
Procedure: We tested the effects of 4456dh on live cells by determining the minimal inhibitory concentration causing 80% growth reduction (MIC80). […] The MIC80 increased at 30°C to greater than 13 mM (Fig. S7A).
(§1) Fig 4 4456dh inhibits the growth of Candida and Cryptococcus species. […] 4456dh was administered at the concentrations indicated. Cultures were grown in YPD at the listed temperatures for 48 hours for Candida species and 72 hours for Cryptococcus species. Experimental temperatures reflect the temperatures at which the fungi experience heat stress. Left: relative growth of treated samples was calculated by averaging technical triplicates and normalizing the OD600 of each treated well to the average OD600 of the untreated WT controls, after the absorbance due to the compound was subtracted. The MIC80 values, calculated based on the OD600 values, are indicated in the white text on each heat map. Right: representative spot assays show the ability of cells to grow after exposure to 4456dh and indicate fungicidal activity of 4456dh. […]
102 determined by identifying the inflection point of the derivative data.
103 Tps1 Enzyme Activity Assay
104 The catalytic activity of C. albicans Tps1 and C. neoformans Tps1 was measured via a continuous
105 enzyme- coupled assay as previously reported ( 4) . […]
110 bottomed 96-well microtiter plates and the decrease in absorbance at 340 nm during the initial
111 reaction rate was recorded using a plate reader (Tecan). The decrease in absorbance was
112 analyzed for the first 200s of the kinetic reaction. […]
116 the overnight cultures was quantified by measuring the OD600 and corrected for the background
117 absorbance of the medium. Antifungal potency for 4456dh was assessed by minimum inhibitory […]
(§2) 124 technical replicates. Growth, as determined by a reading of absorbance at 600 nm, was
(§3) 125 normalized to untreated controls and was corrected for the absorbance of 4456dh in the YPD […]
(§4) 129 overnight cultures was quantified by measuring the OD600 and corrected for the background
(§5) 130 absorbance of the medium. Antifungal potency for 4456dh was assessed by minimum inhibitory […]

[2] = test system: C. glabrata; experiment: Fungicidal spot assay on compound-free YPD plates; format: cell-based
Procedure: as §1, with “map.” for “map. Right: representative spot assays show the ability of cells to grow after exposure to 4456dh and indicate fungicidal activity of 4456dh.”
as §2, §3, §4, §5
137 replicates. Growth, as determined by a reading of absorbance at 600 nm, was normalized to
138 untreated controls and was corrected for the absorbance of 4456dh in the YPD medium. […]
139 minimum inhibitory concentration causing 80% growth reduction, or MIC80, was determined based […]

## Cn1cc(-c2csc(NC(=O)Cc3ccccn3)n2)cn1 [Compound 4456dh]
[1]; 30°C, YPD
  MIC80: no MIC was detected
[1]; Candida albicans, SC5314, 42°C, YPD, 48 hours, read-out: MIC80
  MIC80: 13 mM
[1]; Candida albicans, SC5314, Supplemental Table 5, This publication, read-out: MIC80
  MIC80: 5160 µg/mL
[2]; 30°C exposure
  fungicidal activity: no MIC or fungicidal activity was detected
[2]; 42°C exposure
  concentration from which fungicidal activity starts: approximately 7.8 µM
